Where two headings read alike, the source gives them in different places.
Experiments:
[1] = Maximal tolerated dose, repeated dose IP (7 days) in mice; assay type: in vivo; settings: for MTD at 7 days: TRC, mouse, in vivo
Description: All mice were inspected daily during drug administration and recovery period. Clinical evaluation included mobility observations, food and water consumption. […] Hematology and biochemical blood tests were shown normal at the end of the experiment.

in vivo = settings: IRC, mouse
Description: IRC mice were injected with Astarabine® IV daily for 14 days in a dosage ranging from 400 mg/kg/day to 1200 mg/kg/day. Based on the results of this 14 days intravenous repeated dose study in mice, it was concluded that the IV maximal tolerated dose for Astarabine® is 400 mg/kg/day, administrated for 14 consecutive days. The total administered dose in this group was 5600 mg/kg. All measured parameters such as clinical observations, neurobehavioral observations, motor activity observations, body weight, food consumption, blood analysis and urine analysis, were within the normal range as compared to the non-treated group. Thus, Astarabine® in a concentration of 400 mg/kg/day was considered as the NOAEL (No Adverse Effect Level) in mice. In vivo tolerability/toxicology studies to determine the MTD of a single dose in mice are shown in FIG. 1A and of repeated doses in mice are shown in FIG. 1B.

Molt-4 cells = assay: Human leukemia hollow fiber model transplanted in nude mice (Molt-4); assay type: in vivo; settings: 7 consecutive days
Description: (§1) Next, the efficacy of Astarabine® in vivo was studied on a human leukemia (Molt-4 and CCRF-CEM cells) hollow fiber model transplanted in nude mice. Astarabine® was injected at doses of 6.25 mg/mouse/day and 25 mg/mouse/day intraperitoneally (IP), daily, for 7 consecutive days; cytarabine was injected at a dose of 1.5 mg/mouse/day. Leukemia cell growth was measured using the MTT assay as described in Example 1 herein above.

CCRF-CEM cells = assay: Human leukemia hollow fiber model transplanted in nude mice (CCRF-CEM); assay type: in vivo; settings: 7 consecutive days
Description: as §1

AML and ALL patients = assay: Phase I/IIa open-label clinical study in AML and ALL patients; assay type: in vivo, human
Description: Phase I/IIa, open-label, uncontrolled, single-center study enrolled patients of 18 or more years of age with relapsed or refractory acute leukemia or those unfit for intensive therapy, as judged by the treating physician. The study was approved by the Rambam IRB (approval #0384-11).
Patients were enrolled into 4 Astarabine® escalating dose cohorts, each included 3 patients. Treatment was administered as a 1-hour single daily infusion for 6 consecutive days.
Astarabine® doses for each infusion: • For age ≤50 years: 0.5 g/m^2, 1.5 g/m^2, 3 g/m^2, 4.5 g/m^2 • For age >50 years: 0.3 g/m^2, 0.8 g/m^2, 1.5 g/m^2, 2.3 g/m^2 Results

[2] = patient 1, Refractory AML, 0.3 gr/m^2/day
[3] = patient 2, Refractory AML, 0.3 gr/m^2/day
[4] = patient 3, Refractory AML, 0.5 gr/m^2/day
[5] = patient 4, Secondary AML, 0.8 gr/m^2/day
[6] = patient 5, Secondary AML, 0.8 gr/m^2/day
[7] = patient 6, Refractory AML, 0.8 gr/m^2/day
[8] = patient 8, Secondary AML, 1.5 gr/m^2/day
[9] = patient 9, Secondary AML, 1.5 gr/m^2/day
[10] = patient 10, Relapsed AML, 2.3 gr/m^2/day

SMILES: N[C@@H](CC(=O)Nc1ccn([C@@H]2O[C@H](CO)[C@@H](O)[C@@H]2O)c(=O)n1)C(=O)O [Astarabine®]
- Gross necropsy ([1]; IP 7 days, 156 to 781 mg/kg/day): no abnormal findings
- Hematology and biochemical blood tests ([1]; IP 7 days, 156 to 781 mg/kg/day, end of experiment): normal
- MTD at 7 days ([1]; 781 mg/kg/day IP for 7 days, read-out: Accumulative dose at MTD): 5470 mg/kg
- MTD at 7 days ([1]; IP for 7 days, read-out: MTD (maximal tolerated dose)): 781 mg/kg/day
- IV maximal tolerated dose (in vivo; 14 days): 400 mg/kg/day
- NOAEL at 14 days (in vivo; iv): 400 mg/kg/day
- MTD at 14 days (in vivo; iv, 400 mg/kg/day): 5600 mg/kg
- Inhibition of growth of Molt-4 cells (Molt-4 cells; 6.25 mg/mouse/day IP): 76.9%
- Inhibition of growth of Molt-4 cells (Molt-4 cells; 25 mg/mouse/day IP): 82.8%
- Inhibition of growth of CCRF-CEM cells (CCRF-CEM cells; 6.25 mg/mouse/day IP): 71.9%
- Inhibition of growth of CCRF-CEM cells (CCRF-CEM cells; 25 mg/mouse/day IP): 72.0%
- Adverse effects during or post therapy (AML and ALL patients; 10 patients, 0.3-2.3 g/m^2/day, 1-hour daily infusion for 6 days, apart from neutropenic fever): No significant adverse effects
- Safety and tolerability (AML and ALL patients; even for patients of 80 or more years of age): safe and very well tolerated
- Follow-up in months (AML and ALL patients; [2]): 3 months
- BM blasts Day 0 (AML and ALL patients; patient 1, Refractory AML, 0.3 gr/m^2/day x 6 days infusion): 100%
- BM blasts Day 14 (AML and ALL patients; [2]): 90%
- BM blasts Day 30 (AML and ALL patients; [2]): 83%
- Follow-up in months (AML and ALL patients; [3]): 2 months
- BM blasts Day 0 (AML and ALL patients; [3]): 100%
- BM blasts Day 14 (AML and ALL patients; [3]): 64%
- BM blasts Day 30 (AML and ALL patients; [3]): 70%
- Follow-up in months (AML and ALL patients; [4]): 6 months
- BM blasts Day 0 (AML and ALL patients; [4]): 90%
- BM blasts Day 14 (AML and ALL patients; [4]): 37%
- BM blasts Day 30 (AML and ALL patients; [4]): 60%
- Follow-up in months (AML and ALL patients; [5]): 4 months
- BM blasts Day 14 (AML and ALL patients; [5]): 39%
- BM blasts Day 30 (AML and ALL patients; [5]): 63%
- Follow-up in months (AML and ALL patients; [6]): 9 months
- BM blasts Day 0 (AML and ALL patients; [6]): 80%
- BM blasts Day 14 (AML and ALL patients; [6]): 5%
- BM blasts Day 30 (AML and ALL patients; [6]): 0%
- Follow-up in months (AML and ALL patients; [7]): 1 months
- BM blasts Day 0 (AML and ALL patients; [7]): 85%
- BM blasts Day 14 (AML and ALL patients; [7]): 100%
- BM blasts Day 30 (AML and ALL patients; [7]): 100%
- Follow-up in months (AML and ALL patients; patient 7, ALL, 1.5 gr/m^2/day): 7 months
- BM blasts Day 0 (AML and ALL patients; patient 7, ALL, 1.5 gr/m^2/day): 89%
- BM blasts Day 14 (AML and ALL patients; patient 7, ALL, 1.5 gr/m^2/day): 3%
- BM blasts Day 30 (AML and ALL patients; patient 7, ALL, 1.5 gr/m^2/day): 0.2%
- Follow-up in months (AML and ALL patients; [8]): 6 months
- BM blasts Day 0 (AML and ALL patients; [8]): 63%
- BM blasts Day 14 (AML and ALL patients; [8]): 80%
- BM blasts Day 30 (AML and ALL patients; [8]): 8%
- Follow-up in months (AML and ALL patients; [9]): 1 months
- Outcome (AML and ALL patients; [9]): Died
- BM blasts Day 0 (AML and ALL patients; [9]): 100%
- Follow-up in months (AML and ALL patients; [10]): 1 months
- Outcome (AML and ALL patients; [10]): Died
- BM blasts Day 0 (AML and ALL patients; [10]): 100%
- Remission (AML and ALL patients; patients having acute leukemia, 0.3-2.3 g/m^2/day for 6 days): three out of ten patients
- Safety and tolerability (AML and ALL patients; patients of 75 or more years of age having AML or ALL, daily dose of about 2 g/m^2 or higher): safe and well tolerated
